Patent US7781161B2, “Genomic screen for epigenetically silenced tumor suppressor genes” (The Johns Hopkins University School of Medicine, priority 2002, dated 2010)

Key:
Assay type in all cases: cell-based, human
HNSCC #011 cell line = assay: Microarray screen for reactivated genes in HNSCC cells; details: 10 μM 5Aza-dC
Protocol: (§1) Cells were split to low density (5×10^5 per T-25 flask) 12 to 24 hr before treatment, then treated for 3, 4, or 5 days with 1 μM or 5 μM 5Aza-dC (Sigma) from 100-mM 50% acetic acid dissolved stock or were mock-treated with the same volume of phosphate buffered saline (PBS) including the same acetic acid. Following an initial incubation (48 hr) of 5Aza-dC, a final concentration of 300 nM TSA (Sigma) was added to the media from a 5 mM ethanol dissolved stock, or cells were mock-treated with an identical volume of ethanol.
(§2) Oligonucleotide microarray analysis was performed using the GeneChip™ Human Genome U95Av2 Array (Affymetrix), which contains 12,599 genes, according to the manufacturer's instruction. […] RNA was isolated using TRIZOL reagent (Invitrogen Corp.) and reverse-transcribed total RNA (8 μg) with M-MLV (Invitrogen Corp.); one one-hundredth of the cDNA product was used as a template for PCR. RT-PCR was performed at 24 to 30 cycles: 95° C. for 1 min, 54 or 56° C. for 1 min, and 72° C. for 1 min.
HNSCC cells were incubated with 10 μM 5Aza-dC or with 0.1 μM 5Aza-dC and 300 nM TSA and screened as described in Example 1.

3 ESCC cell lines = assay: Microarray screen, pooled over the 3 ESCC cell lines
Protocol: as §1, §2
Treatment of cells with the demethylating agent 5aza-dC (1 μM or 5 μM) for 3 to 5 days, and with or without the histone deacetylase inhibitor, TSA (300 nM; last 24 hours), was used to reactivate genes epigenetically silenced in 3 ESCC cell lines. […]

KYSE410 = assay: Oligonucleotide microarray: genes up-regulated after 5Aza-dC ± TSA treatment; details: at least 3.0 fold increase
Protocol: as §1, §2
(§3) Treatment of cells with the demethylating agent 5aza-dC (1 μM or 5 μM) for 3 to 5 days, and with or without the histone deacetylase inhibitor, TSA (300 nM; last 24 hours), was used to reactivate genes epigenetically silenced in 3 ESCC cell lines. […] The number of candidate genes was further diminished by comparing expression patterns (see world wide web, at URL “cgap.nci.nih.gov”) in normal esophagus and carcinoma tissue samples (eliminating those genes not expressed in normal tissue), and excluding unknown genes.

KYSE30 = assay: as above; details: at least 3.0 fold increase
Protocol: as §1, §2, §3

KYSE520 = assay: as above; details: at least 3.0 fold increase
Protocol: as §1, §2, §3

## Nc1ncn([C@H]2C[C@H](O)[C@@H](CO)O2)c(=O)n1 [5Aza-dC, 5-aza-2′-deoxycytidine]
HNSCC #011 cell line; HNSCC cells
  Reactivation of epigenetically silenced genes: Reactivation of epigenetically silenced genes was observed
HNSCC #011 cell line; probe 425_at, HNSCC #011
  Fold increase in expression: H.sapiens p27 mRNA (X67325): 5.8 fold
HNSCC #011 cell line; probe 595_at, HNSCC #011
  Fold increase in expression: tumor necrosis factor alpha inducible protein: 3.648 fold
HNSCC #011 cell line; probe 1668_s_a, HNSCC #011
  Fold increase in expression: von Hippel-Lindau disease tumor suppressor mRNA: 2.4375 fold
HNSCC #011 cell line; probe 1736_at, HNSCC #011
  Fold increase in expression: insulin-like growth factor binding protein 6 (IGFBP6) gene (M62402): 2.2 fold
HNSCC #011 cell line; probe 1776_at, HNSCC #011
  Fold increase in expression: Human Rad mRNA (L24564): 10.9 fold
HNSCC #011 cell line; probe 1814_at, HNSCC #011
  Fold increase in expression: mRNA for TGF-betaIIR alpha: 3.3 fold
HNSCC #011 cell line; probe 1860_at, HNSCC #011
  Fold increase in expression: Human Bc12, p53 binding protein (U58334): 2.3 fold
HNSCC #011 cell line; probe 1879_at, HNSCC #011
  Fold increase in expression: Human R-ras gene (M14949): 3.7 fold
HNSCC #011 cell line; probe 1902_at, HNSCC #011
  Fold increase in expression: Human excision repair protein (ERCC1) mRNA: 5.562 fold
HNSCC #011 cell line; probe 2031_s_a, HNSCC #011
  Fold increase in expression: Human wild-type p53 activated fragment-1 (WAF1) mRNA (U03106): 2.9 fold
HNSCC #011 cell line; probe 32034_at, HNSCC #011
  Fold increase in expression: breast cancer putative transcription factor (ZABC1) gene (AF041259): 3.1 fold
HNSCC #011 cell line; probe 34892_at, HNSCC #011
  Fold increase in expression: DR4 homolog; TRAIL receptor 2: 2.4292 fold
HNSCC #011 cell line; probe 35151_at, HNSCC #011
  Fold increase in expression: DOC-1 related protein: 2.4474 fold
HNSCC #011 cell line; probe 36953_at, HNSCC #011
  Fold increase in expression: Mothers against dpp (Mad) gene (DPC4 gene), U10328: 3.5132 fold
HNSCC #011 cell line; probe 38374_at, HNSCC #011
  Fold increase in expression: TGFb inducible early protein and early growth response protein alpha genes (AF050110): 2.3 fold
HNSCC #011 cell line; probe 39781_at, HNSCC #011
  Fold increase in expression: insulin-like growth factor binding protein 4 (IGFBP4) gene (U20982): 3.7 fold
3 ESCC cell lines; 5 μM 5Aza-dC treatment group, 3 ESCC cell lines
  Share of all up-regulated genes included in the treatment group: > 80%
3 ESCC cell lines; after 5Aza-dC treatments
  STAT3 expression after treatment: did not change
KYSE410; 1 μM 5Aza-dC
  Genes upregulated by microarray analysis after treatments: 15 genes
KYSE410; 5 μM 5Aza-dC
  Genes upregulated by microarray analysis after treatments: 334 genes
KYSE30; 1 μM 5Aza-dC
  Genes upregulated by microarray analysis after treatments: 46 genes
KYSE30; 5 μM 5Aza-dC
  Genes upregulated by microarray analysis after treatments: 242 genes
KYSE520; 1 μM 5Aza-dC
  Genes upregulated by microarray analysis after treatments: 5 genes
KYSE520; 5 μM 5Aza-dC
  Genes upregulated by microarray analysis after treatments: 149 genes
